Laboratory results as given in patent US20230235282A1, “SERUM-FREE INDUCTION METHOD FOR SENSORY NEURON CELL” (IREGENE THERAPEUTICS LTD, priority 2020, published 2023).
Like-named read-outs stand apart in the source and are kept apart here. Blank lines part the entries; values can stand above or below the molecule they belong to.

Key:
[1] = test system: sensory neuron cells from CD34+-derived induced pluripotent stem cells; assay: Q-PCR of marker genes in induced sensory neuron cells
Method: Total RNA from different sensory neuron cells was extracted by RNeasy Mini or Micro Kit (QIAGEN), and cDNA was synthesized from 1 mg RNA by SuperScript III First-Strand Synthesis System (Invitrogen). SYBR Premix Ex Taq (TaKaRa) and Thermal Cycler Dice Real Time System (TaKaRa) were used for labeling and reaction of Quantitative PCR, and beta-Actin was used as internal control. All data were analyzed by delta-Ct method. Triplicates were used for each group of experiments, and statistics were performed with ANOVA.

[2] = test system: sensory neuron cells from CD34+-derived induced pluripotent stem cells; assay: Morphology / axon formation of induced sensory neuron cells; format: cell-based, human; conditions: for axon formation: low (3 μM), medium (6 μM) and high (10 μM) concentration
Method: After obtaining the above-mentioned various sensory nerve precursor cells, the medium was removed, and cells were washed with DPBS, and then treated with 0.05% trypsin/EDTA at 37° C. for 5 minutes, and then cell digestion was terminated with DMEM. After the cells were washed and centrifuged, the cells were re-seeded in a T25 culture flask at 1-5×10^5 per plate, and the sensory nerve precursor cells were induced to differentiate and expand into mature sensory neurons by using sensory neuron cell medium. The conditions for cell culture were 37° C., 5% CO2.

[3] = Osmotic pressure of the culture system by freezing point osmometer; format: physicochemical
Method: In order to observe the effect of different concentrations of glycine-glutamine monohydrate on osmotic pressure, the effect of different concentrations of glycine-glutamine monohydrate on the osmotic pressure of culture system was detected by using an automatic freezing point osmometer (FM-8P, Shanghai Medical University Instrument Co., Ltd.), and specific operations were performed according to the product manual (FM-8P, Shanghai Medical University Instrument Co., Ltd.).

[4] = test system: sensory nerve precursor cells from CD34+-derived cells; assay: Induction of sensory nerve precursor cells with different small molecules (morphology, Q-PCR of precursor markers); format: cell-based, human; conditions: 5 μM in induction medium
Method: When the induced pluripotent stem cells reached 70% coverage, they were digested with 0.05% trypsin/EDTA for 5 min at 37° C., and the cell digestion was terminated by using DMEM. After the cells were washed and centrifuged, they were re-seeded in a T25 culture plate at 2×10^5 per flask, and cultured in a sensory neuron induction medium at 37° C., 5% CO2 (Panasonic, MCO-18AC) for 10 days until the formation of neural plate, which confirmed the formation of sensory nerve precursor cells.
All data were analyzed by delta-Ct method.
(5.2) Taking CD34+-derived cells as an example, different small molecules (5 μM RepSox, 5 μM SB525334 and 5 μM TEW-7197 molecules) were used to replace the LY2157299 in the sensory neuron induction medium N2GS212I-2 in Section (3.1) of Example 3; steps in Section (3.1) of Example 3 were repeated to observe the effects of different small molecules on the induced sensory nerve precursor cells.
(5.3) Taking CD34+-derived cells as an example, steps of Example 4 (4.3) were repeated by using the sensory nerve precursor cells obtained in (5.2), and the effects of different small molecules on the expression of neuronal precursor cell markers during the formation of sensory nerve precursor cells were observed. As shown in the figures, the different inhibitor molecules were not only able to form neuron precursor cells (forming a neural plate structure shown in the figure), but also able to increase the expressions of neuron precursor cell markers.

sodium ion channel 1.7 = target: T1, sodium ion channel 1.7 (Homo sapiens, UniProt Q15858); assay: MEA spontaneous discharge after PF-05089771; format: cell-based; conditions: for electrophysiological strength of sodium ion channels of induced cells: various concentrations in induction/culture medium, after 1 μM PF-05089771, fibroblast-derived
T1 construct: endogenous in cells; host or cells: sensory neurons induced from human fibroblast-derived iPSCs
T1 sequence (Q15858 whole entry): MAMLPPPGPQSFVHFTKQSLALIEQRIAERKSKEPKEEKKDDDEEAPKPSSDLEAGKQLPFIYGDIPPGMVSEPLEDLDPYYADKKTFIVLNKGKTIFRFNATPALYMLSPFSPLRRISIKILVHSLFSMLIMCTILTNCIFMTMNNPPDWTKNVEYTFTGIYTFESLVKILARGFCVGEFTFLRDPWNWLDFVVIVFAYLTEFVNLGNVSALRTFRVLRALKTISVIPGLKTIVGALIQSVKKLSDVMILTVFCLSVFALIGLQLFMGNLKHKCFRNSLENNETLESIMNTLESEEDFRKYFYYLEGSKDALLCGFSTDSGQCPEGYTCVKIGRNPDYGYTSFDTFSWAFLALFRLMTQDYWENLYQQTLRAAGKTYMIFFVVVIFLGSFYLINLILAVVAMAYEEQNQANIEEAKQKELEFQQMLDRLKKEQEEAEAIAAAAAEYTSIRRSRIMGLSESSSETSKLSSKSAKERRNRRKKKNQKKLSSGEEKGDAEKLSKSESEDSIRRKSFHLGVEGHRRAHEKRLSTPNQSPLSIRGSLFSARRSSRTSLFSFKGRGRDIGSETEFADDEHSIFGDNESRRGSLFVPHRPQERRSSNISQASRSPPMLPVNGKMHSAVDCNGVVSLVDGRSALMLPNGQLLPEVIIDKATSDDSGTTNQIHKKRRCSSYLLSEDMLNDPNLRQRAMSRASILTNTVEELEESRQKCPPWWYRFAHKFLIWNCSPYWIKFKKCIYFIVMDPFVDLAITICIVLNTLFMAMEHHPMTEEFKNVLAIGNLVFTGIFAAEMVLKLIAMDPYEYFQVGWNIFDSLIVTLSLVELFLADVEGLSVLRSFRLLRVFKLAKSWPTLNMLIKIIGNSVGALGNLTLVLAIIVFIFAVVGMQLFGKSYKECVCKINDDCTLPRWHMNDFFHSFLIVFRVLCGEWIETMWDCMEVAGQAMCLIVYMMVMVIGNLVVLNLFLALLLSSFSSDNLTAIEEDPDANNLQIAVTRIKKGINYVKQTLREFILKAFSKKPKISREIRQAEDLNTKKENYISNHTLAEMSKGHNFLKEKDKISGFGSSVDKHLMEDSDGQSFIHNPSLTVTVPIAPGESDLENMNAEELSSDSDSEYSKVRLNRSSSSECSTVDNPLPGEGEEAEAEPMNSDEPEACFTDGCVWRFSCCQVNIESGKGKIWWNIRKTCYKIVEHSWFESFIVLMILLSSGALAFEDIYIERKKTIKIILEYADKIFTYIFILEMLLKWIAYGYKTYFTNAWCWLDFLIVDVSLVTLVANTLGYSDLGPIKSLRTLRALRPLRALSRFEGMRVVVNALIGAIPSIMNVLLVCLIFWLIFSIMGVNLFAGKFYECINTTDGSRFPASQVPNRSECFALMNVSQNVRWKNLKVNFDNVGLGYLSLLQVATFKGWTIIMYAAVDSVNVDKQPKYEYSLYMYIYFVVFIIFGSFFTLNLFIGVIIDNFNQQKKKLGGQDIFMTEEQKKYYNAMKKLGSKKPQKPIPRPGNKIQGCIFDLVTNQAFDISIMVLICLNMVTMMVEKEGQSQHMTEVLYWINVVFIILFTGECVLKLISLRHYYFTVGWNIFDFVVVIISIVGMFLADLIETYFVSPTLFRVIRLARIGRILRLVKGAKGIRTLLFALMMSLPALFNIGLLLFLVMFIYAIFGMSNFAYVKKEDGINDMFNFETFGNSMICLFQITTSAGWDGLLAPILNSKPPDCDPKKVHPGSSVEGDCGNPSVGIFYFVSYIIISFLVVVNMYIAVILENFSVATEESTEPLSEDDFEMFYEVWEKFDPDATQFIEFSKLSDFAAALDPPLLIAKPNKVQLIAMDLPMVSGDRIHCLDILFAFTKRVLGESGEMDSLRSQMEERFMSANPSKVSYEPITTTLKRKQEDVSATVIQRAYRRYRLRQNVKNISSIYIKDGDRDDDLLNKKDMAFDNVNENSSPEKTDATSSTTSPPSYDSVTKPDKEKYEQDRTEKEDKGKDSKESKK

[5] = test system: induced sensory neurons derived from fibroblasts; assay: Cyquant cell viability assay; format: cell-based, human; conditions: day 1, 3, 5, 10; different concentrations of NT3
Method: The cell viability was quantitatively detected by Cyquant assay to compare the effects of different combinations of small molecule compounds on maintaining physiological states of cells during long-term culture of induced sensory neurons.
Cell plate coating was performed in a 96-well opaque cell culture plate according to the method in Example 4 (4.4.1). […] The cells were cultured in the sensory neuron cell induction medium of Example 3 with different concentrations of NT3, and the culture conditions were 37° C., 5% carbon dioxide, and the medium was half quantity changed every three days. The medium in the known method was used as a control group. Samples were taken at day 1, day 3, day 5 and day 10, respectively, and the cell viability detection was carried out by using CyQuant Kit (Invitrogen, X12223) according to the instruction manual, and date were read by SpectraMax i3 Multi-Mode Microplate Reader (VWR, ID3-STD).

Molecule: C[C@H](NC(=O)Cc1cc(F)cc(F)c1)C(=O)N[C@H](C(=O)OC(C)(C)C)c1ccccc1 [DAPT]
induced neuron cell markers and peripheral sensory neuron cell markers ([1]; DAPT lower than 3 μM): much lower than those in the serum control group | expression of neuron marker Tuj ([1]; DAPT more than 10 μM): increased | expression of sodium ion channel 1.8 (SCN10A) ([1]; DAPT more than 10 μM): decreased | axon formation [2]: able to form axons

osmotic pressure with increase of concentration ([3]; HEPES buffer in medium): increased linearly | osmotic pressure of the culture system ([3]; concentration more than 15 mM): > 320 mOsm/kg
Molecule: O=S(=O)(O)CCN1CCN(CCO)CC1 [HEPES buffer, HEPES]
cell morphology ([2]; HEPES buffer 5 mM, 10 mM, 15 mM): morphologically normal | cell tolerance ([2]; high concentration (15 mM)): cell intolerance began to appear

expression of Caspase3 relative to serum control group ([1]; LDN193189 180 nM or more): more than 1.5 times
Molecule: c1ccc2c(-c3cnn4cc(-c5ccc(N6CCNCC6)cc5)cnc34)ccnc2c1 [LDN193189]
expression of sodium ion channel 1.8 (SCN10A) ([1]; LDN193189 below 12 nM): lower than that in serum control | induction of cell types with neural axons ([2]; 12 nM, 50 nM and 180 nM): cell types with neural axons can be induced

antagonism against PF-05089771 of the induced neurons (sodium ion channel 1.7; neurons induced by using LY2157299, 1 μM PF-05089771): more antagonism against PF-05089771 | electrophysiological strength of sodium ion channels of induced cells (sodium ion channel 1.7): significantly improved
Molecule: Cc1cccc(-c2nn3c(c2-c2ccnc4ccc(C(N)=O)cc24)CCC3)n1 [LY2157299]
formation of neuron precursor cells (neural plate structure) [4]: neuron precursor cells formed | expressions of SCN9A and SCN11A compared with the serum induction method ([1]; 7.5 μM and 25 μM): significantly increased | expression of various sodium ion channel proteins versus concentration ([1]; Q-PCR, different LY2157299 concentrations in induction medium): linear increase in concentration versus protein expression | ion channel protein expressions ([1]; concentrations of below 50 nM): significantly lower than normal levels

Molecule: Cc1cccc(-c2[nH]ncc2-c2ccc3ncccc3n2)n1 [RepSox]
formation of neuron precursor cells (neural plate structure) [4]: neuron precursor cells formed

Molecule: Cc1cccc(-c2[nH]c(C(C)(C)C)nc2-c2ccc3nccnc3c2)n1 [SB525334]
formation of neuron precursor cells (neural plate structure) [4]: neuron precursor cells formed

Molecule: Cc1c[nH]c(/C=C2\C(=O)Nc3ccccc32)c1CCC(=O)O [SU5402]
cell death marker CASP3 ([1]; SU5402 higher than 15 μM): significantly increased | expression of ion channel protein compared with serum induction method ([1]; SU5402 lower than 3 μM): lower than the control level | axon formation [2]: could form axons | electrophysiological strength of sodium ion channels of induced cells (sodium ion channel 1.7): significantly improved

Molecule: Cc1cccc(-c2[nH]c(CNc3ccccc3F)nc2-c2ccc3ncnn3c2)n1 [TEW-7197]
formation of neuron precursor cells (neural plate structure) [4]: neuron precursor cells formed

Molecule: CHIR98014
expression of SCN11A (Nav1.9) compared with the serum induction method [1]: significantly increased | expression of ion channel protein [1]: lower than normal level | expression of neuron marker Tuj [1]: lower than that at other concentrations

B1: NT3: human-NT3 (Novoprotein, Cat. No. C079), added to sensory neuron cell medium (protein, UniProt P20783 139-257, looked up)
Neurotrophin-3: YAEHKSHRGEYSVCDSESLWVTDKSSAIDIRGHQVTVLGEIKTGNSPVKQYFYETRCKEARPVKNGCRGIDDKHWNSQCKTSQTYVRALTSENNKLVGWRWIRIDTSCVCALSRKIGRT
modifications: Neurotrophin-3
notes: human-NT3 (Novoprotein, Cat. No. C079), added to sensory neuron cell medium
in vitro viability of induced neurons in long-term culture vs serum induction method [5]: effectively increase the in vitro viability
